Data on ten molecules can be found in article PMC5571359, “Screening the Medicines for Malaria Venture Pathogen Box across Multiple Pathogens Reclassifies Starting Points for Open-Source Drug Discovery” (Antimicrobial Agents and Chemotherapy, 2017).

As usually defined, the IC50 is the point on the concentration scale where inhibition reaches its midpoint.

Molecules are shown by their SMILES. Like-named read-outs stand apart in the source and are kept apart here.

The subject of data set [1] is T. cruzi C4 β-galactosidase reporter parasite in MRC 5SV2 host cells. The settings on record: ref Pbox supporting information; read-out: T. cruzi Pbox IC50; cited from earlier work.
Data set [2] relates to T. brucei brucei. The conditions noted are these: ref Pbox supporting information; read-out: T.b. brucei Pbox IC50; cited from earlier work.
The test system of data set [3] is T. brucei rhodesiense. The settings on record: ref Pbox supporting information; read-out: T .b. rohdensie Pbox IC50; cited from earlier work.
Data set [4] deals with L. donovani axenic amastigotes. Further details: method as in PBox supporting information. The conditions noted are these: ref PBox supporting information; cited from earlier work.
The subject of data set [5] is L. infanium (macrophages). Details: method as in Pbox supporting information. The settings on record: ref Pbox supporting information; cited from earlier work.
In data set [6] the test system is L. donovani (macrophages). Further details: method as in Pbox supporting information. The settings on record: ref Pbox supporting information; cited from earlier work.
The subject of data set [7] is infected PMM. Details: method as in Pbox supporting information. The settings on record: ref Pbox supporting information, read-out: Toxicity on infected PMM Pbox IC50; cited from earlier work.
The test system of data set [8] is HepG2. The settings on record: HepG2; ref PBox supporting information; cited from earlier work.
The test system of data set [9] is NF54-pfs16-LUC-GFP stage IV gametocytes. Briefly: Plasmodium falciparum late stage gametocyte (LSG) image-based assay. The data set is classed as cell-based. The settings on record: reference compound set, 11-point dose response; IA = inactive at 20 μM; read-out: IC50 P. falciparum NF54 LSG.
Data set [10] deals with T. cruzi intracellular amastigotes. Briefly: Intracellular anti-Trypanosoma cruzi image-based assay (amastigotes). Format: cell-based. The conditions noted are these: reference compound set; IA = inactive at 16.4 μM; read-out: IC50 T. cruzi intracellular amastigotes.
In data set [11] the test system is 3T3 host cells. Briefly: T. cruzi assay, activity against 3T3 host cells. Format: cell-based. The conditions noted are these: reference compound set; IA = inactive at 16.4 μM. On the procedure: page 4: […] Puromycin, 71 chloroquine, artesunate, DHA, pyronaridine and pyrimethamine were also tested in 72 IC50 format to act as internal reference compounds. 73 74 Intracellular anti-Trypanosoma cruzi Assay Protocol 75 The host cell cytoplasm, in which the parasite resides, is identified by the fluorescent 76 marker, HCS CellMask Green. Parasite and host cell nuclei are detected with the 77 fluorescent DNA intercalator, Hoechst 33342. The Opera® High Content Screening 78 System is used to take images of wells and a spot detection algorithm is used to 79 identify parasites within the cytoplasm. 80 81 Briefly, 1x 10^3 3T3 cells were added to collagen coated 384-well plates and following 82 24 hrs incubation at 37 °C, a multiplicity of infection (MOI) of 5:1 parasite: host cells 83 were added to the plate using a Multidrop liquid handler. Following additional 24 hrs 84 incubation, extracellular parasites were washed from the plates and RPMI with no […] 86 added to all wells. The final volume of media in the primary screening assay, before 87 addition of compound, was modified slightly to 55 µL. One µL of compounds, provided 88 by Compounds Australia, were diluted by the addition of 25 µL of sterile water. This […] 91 donovani). Five microliters of this dilution was added to assay plates. The final […] The final concentrations of compounds in the […] Following 48 hrs incubation in the presence 97 of compounds, wells were fixed, stained and read on the Opera® High Content 98 Screening System to assess compound activity. 99 The Z′-factor, as a measure of assay reproducibility, was determined from a plate […] The positive control used to calculate activity against […] To 103 assess the sensitivity of the T. cruzi assay, activity of the reference compounds 104 benznidazole, NFX, posaconazole and puromycin were determined. […] 108 resazurin as a measure of parasite viability. 109 T. b. brucei trypanosomes were cultured in vitro in HM1-9 medium supplemented with […] Fifty-five µL of logarithmic phase […] 112 incubated for 24 hrs at 37°C /5% CO2. Compounds were subsequently added to the […] Following […] 116 37°C / 5% CO2 followed by 22 hrs at room temperature. […] The percent

Data set [12] has as its system T. b. brucei 427 bloodstream trypanosomes. Kind of data set: T. b. brucei resazurin viability assay. Format: cell-based, Trypanosoma brucei brucei. The settings on record: reference compound set; IA = inactive at 20 μM; read-out: IC50 T. brucei brucei trypomastigotes. For orientation: Resazurin is reduced to fluorescent resorufin, in cell work by metabolically active cells.

The subject of data set [13] is L. donovani MHOM/IN/80/DD8 intracellular amastigotes. Briefly: Leishmania donovani intracellular amastigote assay in THP-1 cells. The data set is classed as cell-based. The conditions noted are these: reference compound set, IA = inactive at 20 μM.
The test system of data set [14] is Plasmodium falciparum 3D7 asexual blood stage. The conditions noted are these: read-out: IC50 P. falciparum 3D7 ABS.
The test system of data set [15] is HEK293 cells. Kind of data set: HEK293 resazurin cell cytotoxicity assay. The settings on record: read-out: IC50 mammalian cell cytotoxicity HEK293; reference compound set.
The mark [16] stands for this setting: read-out: IC50 L. donovani n = 1, first test.
Where [17] appears, read: read-out: IC50 L. donovani n = 2, second test.
Where [18] appears, read: reference compound set, 11-point dose response, IA = inactive at 20 μM.

With `c1ccc(Oc2ccc(-c3cc(N4CCOCC4)[nH]n3)cc2)cc1` [MMV045105], the IC50 in data set [1] is 16 µM; in data set [2], 3.45 µM; in [3] it was 1.29 µM; in [4], 3.87 µM; in [5] it was 21.5 µM; in data set [6] it was more than 30 µM. Also, in data set [7], the IC50 was more than 30 µM. The “HepG2 PBox CC20” value in data set [8] was 7.5 µM.

In the case of `COC(=O)c1cccc2oc(-c3cccc(OC)c3NC(=O)c3cc(-c4ccccc4)on3)nc12` [MMV676186], the IC50 was more than 32 µM in [1]; more than 32 µM in data set [2]; more than 32 µM in [3]; 3.95 µM in [4]; more than 32 µM in data set [5]; more than 30 µM in data set [6]. In addition, the 50% inhibitory concentration (IC50) in data set [7] is more than 30 µM. Besides, the “HepG2 PBox CC20” value in [8] is more than 80 µM.

`C[C@H]1COc2c(N3CCN(C)CC3)c(F)cc3c(=O)c(C(=O)O)cn1c23` [Levofloxacin (–)-ofloxacin, reference compound]: the IC50 in data set [9] is more than 20 µM; in data set [10] it was more than 16.4 µM; in data set [11], more than 16.4 µM; in [12] it was more than 20 µM; in data set [13] (setting [16]) it was more than 20 µM; in [13] (setting [17]) it was more than 20 µM. Further, the IC50 in data set [14] (setting [18]) was more than 20 µM.

On to `CC(=O)OC[C@H]1O[C@@H]([S-])[C@H](OC(C)=O)[C@@H](OC(C)=O)[C@@H]1OC(C)=O.CCP(CC)CC.[Au+]` [Auranofin, reference compound], for which the IC50 in data set [9] amounted to 0.55 µM; in data set [10], 3.02 µM; in data set [11] it was 4.9 µM; in data set [12] it was 0.24 µM; in data set [13] (setting [16]) it was 0.63 µM; in data set [13] (setting [17]), 2 µM. Besides, the IC50 in data set [14] (setting [18]) amounted to 0.7 µM; in [15], 2200 nM.

Consider `N#CCN(CCCCN1CCN(c2ccc(F)cc2)CC1)C(=O)OCc1ccccc1` [MMV675997], for which the IC50 in data set [1] was 4.62 µM; in data set [2], 24.9 µM; in data set [3], 16.4 µM; in data set [4] it was more than 100 µM; in data set [5], 25.4 µM; in data set [6] it was 22.2 µM. Further, in [7], the IC50 was more than 30 µM.

In the case of `NCCC[C@](N)(C(=O)O)C(F)F` [α-Difluoromethylornithine, reference compound], the IC50 in data set [9] is more than 20 µM; in [10], more than 16.4 µM; in data set [11] it was more than 16.4 µM; in data set [12], more than 20 µM; in data set [13] (setting [16]), more than 20 µM; in data set [13] (setting [17]) it was more than 20 µM. Besides, the half-maximal inhibitory concentration (IC50) in data set [14] is more than 20 µM.

On to `Cc1nc(-c2ccccn2)nc(NCCc2ccc(S(C)(=O)=O)cc2)c1Cl` [MMV658993], for which the half-maximal inhibitory concentration (IC50) in [1] is 4.44 µM; in [2], more than 32 µM; in data set [3], more than 32 µM; in data set [4] it was 2.05 µM; in data set [5], more than 32 µM; in data set [6], more than 30 µM. The IC50 in [7] is 30 µM. Besides, the “HepG2 PBox CC20” value in [8] is 27.9 µM.

Take `O=C(Nc1c(O)cccc1-c1nc2c(C(=O)O)cccc2o1)c1cc(-c2ccccc2)on1` [MMV676008]: the IC50 was more than 32 µM in data set [1]; more than 32 µM in data set [2]; more than 32 µM in data set [3]; 0.57 µM in data set [4]; more than 32 µM in data set [5]; more than 30 µM in [6]. For the same molecule, the IC50 in [7] was more than 30 µM. For the same molecule, the “HepG2 PBox CC20” value in data set [8] was 5.7 µM.

With `O=C(Nc1ccccc1-c1nc2c(C(=O)O)cccc2o1)c1ccccc1` [MMV676162], the concentration for half-maximal inhibition (IC50) in data set [1] was more than 32 µM; in data set [2], more than 32 µM; in [3], more than 32 µM; in data set [4] it was 0.4 µM; in [5], more than 32 µM; in data set [6] it was more than 30 µM. Further, in data set [7], the IC50 is more than 30 µM. In addition, the “HepG2 PBox CC20” value in data set [8] was more than 80 µM.

With `c1ccc(Oc2ccc(-c3cc(CN4CCOCC4)[nH]n3)cc2)cc1` [MMV676161], the IC50 in data set [1] is 16 µM; in [2] it was 15.1 µM; in [3], 5.26 µM; in data set [4], 9.7 µM; in [5], more than 32 µM; in data set [6] it was 26.1 µM. In addition, in data set [7], the IC50 was 30 µM. In addition, the “HepG2 PBox CC20” value in [8] is 28.9 µM.
